Columns and labels:
[1] = tested on: WT1; assay: Confocal microscopy of WT1 localization in PMA-treated HEL cells; type: cell-based, human; conditions: PMA 100 nM, at 5 h and 8 h
Description: HEL 92.1.7 cells were seeded at ˜1×10^5 cells/ml in 2 ml normal growth media (RPMI 1640, 10% FBS) in 6-well plates containing Poly-L-lysine coated coverslips. Cells were grown at 37° C. for 24 h prior to incubating cells with 100 nM PMA for 0, 1, 5, 8, 16 and 24 h. Thereafter, cells were fixed in 3.4% paraformaldehyde and permeabilized with 0.2% Triton X-100 for 10 min on ice, after which cells were immunolabelled with anti-WT1 (1:1000 of 2 μg/μl stock) and AlexaFluor488 conjugated anti-rabbit, followed by counterstaining with DAPI (1 μg/ml in H2O). Images were obtained using Carl Zeiss Lazer Scanning System LSM510 and Zeiss LSM Imaging software for acquiring multi-channel images with filters appropriate for enhanced DAPI & AlexaFluor488.

[2] = tested on: −8460 to −8006 region of Prm1; assay: ChIP analysis of WT1, Egr1 and Sp1 binding to Prm1 in PMA-treated HEL cells; type: cell-based, human; conditions: PMA 100 nM for 5, 8 or 16 h
Description: Chromatin immunoprecipitation (ChIP) assays were performed essentially as described (Koch et al., 2007). Specifically, HEL cells (1×10^8) were pelleted, washed in ice-cold PBS and resuspended in serum-free RPMI 1640. Formaldehyde-cross linked chromatin was sonicated, as described (Koch et al., 2007), to generate fragments 500 bp to 1000 bp in length. Prior to immunoprecipitation (IP), chromatin was incubated with 60 μg normal rabbit IgG overnight at 4° C. on a rotisserie, after which 250 μl of salmon sperm DNA/protein A agarose beads (Millipore) were added and chromatin was precleared for 3 h at 4° C. with rotation. Thereafter, anti-WT1, anti-NF-E2, anti-Sp1, anti-Egr1, anti-GATA-1, anti-Ets-1 ([…]), normal rabbit IgG (10 μg), or a “no antibody” control were used for immunoprecipitation. Following elution, cross-links were reversed by incubation at 65° C. overnight followed by protease digestion with proteinase K (Sigma; 9 μl of 10 mg/ml) at 45° C. for 7 h. After precipitation, samples were resuspended in 50 μl dH2O. PCR analysis was carried out using 2-3 μl of ChIP sample as template or, as a positive control, with an equivalent volume of a 1:20 dilution of the input chromatin DNA. The identities of the primers used for the ChIP PCR reactions, as well as their sequences and corresponding nucleotides within Prm1 are listed below. […]

CCCCCCCCCCCCCC(=O)O[C@@H]1[C@@H](C)[C@@]2(O)[C@@H](C=C(CO)C[C@]3(O)C(=O)C(C)=C[C@@H]23)[C@@H]2C(C)(C)[C@]12OC(C)=O [PMA, phorbol 12-myristate 13-acetate]
Intracellular localization of WT1 [1]: redistribution of WT1 to the cytosolic fraction
Binding of WT1, Egr1 and Sp1 to Prm1 chromatin [2]: substantial changes in the pattern of binding of these factors to distal upstream GC-enriched elements

— patent US20110269825A1, “Modified Thromboxane A2 Receptor Promoter Sequence” (priority 2008, published 2011)
